From PubChem BioAssay (NCI)
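Step 1: Grow cells in 96-well plates. Step 2: Expose to compound for 48 hours at 5 concentrations. Step 3: Interpolate endpoints linearly; if unreached, use highest concentration. TGI: total growth inhibition.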

Key:
Assay in all cases: growth of human tumour cells (NCI), 48 h
[1] = test system: A549 NSCLC
[2] = test system: BT-549 breast
[3] = test system: HCC-2998 colon
[4] = test system: HCT-116 colon
[5] = test system: HS 578T breast
[6] = test system: KM12 colon
[7] = test system: MDA-N
[8] = test system: MOLT-4 leukemia
[9] = test system: NCI-H226 lung
[10] = test system: NCI-H23 lung
[11] = test system: NCI/ADR-RES ovarian
[12] = test system: PC-3 prostate
[13] = test system: RPMI-8226 leukemia
[14] = test system: SF-539 CNS
[15] = test system: SK-MEL-2 melanoma
[16] = test system: SK-MEL-28 melanoma
[17] = test system: SK-MEL-5 melanoma
[18] = test system: SN12C renal
[19] = test system: SNB-19 CNS
[20] = test system: SR leukemia

| SMILES | TGI [1] | TGI [2] | TGI [3] | TGI [4] | TGI [5] | TGI [6] | TGI [7] | TGI [8] | TGI [9] | TGI [10] | TGI [11] | TGI [12] | TGI [13] | TGI [14] | TGI [15] | TGI [16] | TGI [17] | TGI [18] | TGI [19] | TGI [20] |
| --- | --- | --- | --- | --- | --- | --- | --- | --- | --- | --- | --- | --- | --- | --- | --- | --- | --- | --- | --- | --- |
| COC(=O)c1cc2c(o1)Sc1ccccc1NC2=O | > 100 µM | > 100 µM | > 100 µM | > 100 µM | 63.8 µM | > 100 µM | > 100 µM | > 100 µM | > 100 µM | > 100 µM | > 100 µM | > 100 µM | > 100 µM | > 100 µM | > 100 µM | > 100 µM | > 100 µM | > 100 µM | > 100 µM | > 100 µM |
| Cc1c(C)c2c(c(N)c1C#N)C(=O)N(CCc1ccccc1)C2=O | > 100 µM | > 100 µM | > 100 µM | > 100 µM | > 100 µM | > 100 µM | > 100 µM | > 100 µM | > 100 µM |  | > 100 µM | > 100 µM | > 100 µM | > 100 µM | > 100 µM | > 100 µM | > 100 µM | > 100 µM | > 100 µM | > 100 µM |
| CC(C)(C)[Si](C)(C)O[C@@H](C(=O)OC1C=CCCC1)[C@@H](NC(=O)c1ccccc1)c1ccccc1 (stereo partly drawn) | 94.9 µM | > 100 µM | 44.4 µM | > 100 µM | > 100 µM | > 100 µM | > 100 µM | 39.3 µM | > 100 µM | > 100 µM | > 100 µM | > 100 µM | 9.89 µM | > 100 µM | 48.6 µM | > 100 µM | 37.2 µM | 61.3 µM | > 100 µM | 37.9 µM |
| COc1ccc2cc(CNCCCCCCCCCCCCNCc3ccc4cc(OC)ccc4c3)ccc2c1 | > 54.8 µM | 33 µM | 39.1 µM | 32.8 µM | 31.7 µM | 40.1 µM | > 54.4 µM | > 58.9 µM | 32.5 µM | 34.3 µM | 43 µM | > 55.4 µM | 42.6 µM | 31.8 µM | 41.1 µM | > 56 µM | > 54 µM | 46.9 µM | 31.3 µM | > 21.5 µM |
| COc1ccc(/C=C2\CCC(CNc3cc(C)on3)C2=O)cc1 (stereo not drawn) | > 100 µM | > 100 µM | > 100 µM | > 100 µM | > 100 µM | > 100 µM | > 100 µM | > 100 µM | > 100 µM | > 100 µM | > 100 µM | > 100 µM | > 100 µM | > 100 µM | > 100 µM | > 100 µM | > 100 µM | > 100 µM | > 95.5 µM | > 100 µM |
| COc1cc(C2SCC(=O)N2c2ccccc2Cl)cc(OC)c1OC (stereo not drawn) | > 100 µM | > 100 µM | > 100 µM | > 100 µM | > 100 µM | > 100 µM | 44.8 µM |  | > 100 µM | > 100 µM | > 100 µM | > 100 µM | > 100 µM | > 100 µM | > 100 µM | > 100 µM | > 100 µM | > 100 µM | > 100 µM | > 100 µM |
| COc1cc2c[n+](C)c3c4cc5c(cc4ccc3c2cc1OC)OCO5 | 0.756 µM | 78.4 µM | 7.52 µM | 18.9 µM | > 100 µM | 7.21 µM | > 100 µM | 13.5 µM | 15.3 µM | 3.65 µM | > 100 µM | > 100 µM | 23.5 µM | 5.32 µM | 6.97 µM | > 82.4 µM | 23.2 µM | > 27.8 µM | 21.5 µM | 22.8 µM |
| Cc1cc(C)nc(NS(=O)(=O)c2ccc(NNc3c4ccccc4nc4c(C(=O)Nc5ccc(S(=O)(=O)Nc6ncccn6)cc5)cccc34)cc2)n1 | > 100 µM | > 100 µM | 51.2 µM | 39.2 µM | > 100 µM | > 100 µM | > 100 µM | 92.9 µM | 53.2 µM | 69.5 µM | > 100 µM | 71.3 µM | 76.8 µM | 69.4 µM | 43.6 µM | 65 µM | 47.5 µM | 75.1 µM | > 100 µM | 59 µM |
| COc1ccc2nc3c([N+](=O)[O-])ccc4c3c(c2c1)N=CN4CCCN(C)C | 13.4 µM | 23.5 µM | 6.54 µM | 14.1 µM | 27.5 µM | 13 µM | 21.8 µM | 0.757 µM | 24.9 µM | 18.7 µM | 18 µM | 13 µM | 0.772 µM | 13 µM | 22.8 µM | 31.5 µM | 12.1 µM | 11.5 µM | 22.2 µM | 1.03 µM |
| CCOC(=O)C(C(=O)OCC)=C1NC2(c3ccccc3Nc3ccc(C)cc32)C(C#N)S1 (stereo not drawn) | 21.8 µM | 29.5 µM | 11.3 µM | 22 µM | 46.5 µM | 41.3 µM | 46.3 µM | 5.76 µM | 25.3 µM | 12.3 µM | 25.7 µM | 13.7 µM | 4.63 µM | 12 µM | 22.1 µM | 70.9 µM | 20 µM | 8.68 µM | 30.8 µM | 4.99 µM |
| O=C1C(=O)c2c(oc(=O)c3ccccc23)-c2ccccc21 | > 25 µM | > 25 µM | > 25 µM | > 25 µM | > 25 µM | > 25 µM | > 25 µM | > 25 µM | > 25 µM | > 25 µM | > 25 µM | > 25 µM | > 25 µM | > 25 µM | > 25 µM | > 25 µM | > 25 µM | > 25 µM | > 25 µM | > 25 µM |
| CC(=O)C(=[N+]=[N-])C(=O)NCC#N | > 10 µM | > 10 µM | > 10 µM | > 10 µM | > 10 µM | > 10 µM | > 10 µM | > 10 µM | > 10 µM | > 10 µM | > 10 µM | > 10 µM | > 10 µM | > 10 µM | > 10 µM | > 10 µM | > 10 µM | > 10 µM | > 10 µM | > 10 µM |
